Data reported in BindingDB's records for doi:10.1016/s0968-0896(98)00004-2 (Sankyo, 1998).

Target: T1, Dimer of Gag-Pol polyprotein [489-587] (Human immunodeficiency virus 1, UniProt P12497)
T1 construct: 489-587
Assay: Protease Inhibition Assay
Method: The inhibitory activities of the compounds toward HIV-1 PR were determined by sodium dodecyl sulfate-polyacrylamide gel electrophoresis (SDS-PAGE) assay. The IC50 values of active compounds were determined using the partially purified protease and the synthetic substrate Ac-Ser-Gln-AsnTyr-Pro-Ile-Val-NH2.

Row | Compound | IC50
1 | CC(C)(C)NC(=O)[C@@H]1C[C@H](Cl)CN1C(=O)[C@@H](O)[C@H](Cc1ccccc1)NC(=O)c1ccccc1I | 14 nM
2 | Cc1cccc(C)c1C(=O)N[C@@H](Cc1ccccc1)[C@H](O)C(=O)N1C[C@@H](Cl)C[C@H]1C(=O)NC(C)(C)C | 3.6 nM
3 | CC(C)(C)NC(=O)[C@@H]1C[C@H](Cl)CN1C(=O)[C@@H](O)[C@H](Cc1ccccc1)NC(=O)c1ccccc1N | 39 nM
4 | CC(C)(C)NC(=O)[C@@H]1C[C@H](Cl)CN1C(=O)[C@@H](O)[C@H](Cc1ccccc1)NC(=O)c1cccc(O)c1 | 9 nM
5 | CC(C)(C)NC(=O)[C@@H]1C[C@H](Cl)CN1C(=O)[C@@H](O)[C@H](Cc1ccccc1)NC(=O)c1ccccc1Cl [2-Chlorobenzoyl-(2S,3S)-AHPBA-4(S)-Cl-Pro-NH-t-Bu] | 11 nM
6 | Cc1ccccc1C(=O)N[C@@H](Cc1ccccc1)[C@H](O)C(=O)N1C[C@@H](Cl)C[C@H]1C(=O)NC(C)(C)C [2-Methylbenzoyl-(2S,3S)-AHPBA-4(S)-Cl-Pro-NH-t-Bu] | 5.1 nM
7 | CC(C)(C)NC(=O)[C@@H]1C[C@H](Cl)CN1C(=O)[C@@H](O)[C@H](Cc1ccccc1)NC(=O)c1cccc(F)c1 [3-Fluorobenzoyl-(2S,3S)-AHPBA-4(S)-Cl-Pro-NH-t-Bu] | 20 nM
8 | CC(C)(C)NC(=O)[C@@H]1C[C@H](Cl)CN1C(=O)[C@@H](O)[C@H](Cc1ccccc1)NC(=O)c1ccc(O)cc1 [4-Hydroxybenzoyl-(2S,3S)-AHPBA-4(S)-Cl-Pro-NH-t-Bu] | 33 nM
9 | COc1cccc(C(=O)N[C@@H](Cc2ccccc2)[C@H](O)C(=O)N2C[C@@H](Cl)C[C@H]2C(=O)NC(C)(C)C)c1O [(2-Hydroxy-3-methoxy)benzoyl-(2S,3S) -AHPBA-4(S)-Cl-Pro-NH-t-Bu] | > 1000 nM
10 | CO[C@@H]1OCCC[C@@H]1OC(=O)N[C@@H](Cc1ccccc1)[C@H](O)C(=O)N1C[C@@H](Cl)C[C@H]1C(=O)NC(C)(C)C [(2R,3S)-2-methoxyoxan-3-yl N-[(2S,3S)-4-[(2S,4S)-2-(tert-butylcarbamoyl)-4-chloropyrrolidin-1-yl]-3-hydroxy-4-oxo-1-phenylbutan-2-yl]carbamate] | 37 nM
11 | CO[C@H]1OCC=C[C@H]1OC(=O)N[C@@H](Cc1ccccc1)[C@H](O)C(=O)N1C[C@@H](Cl)C[C@H]1C(=O)NC(C)(C)C [(2S,3R)-2-methoxy-3,6-dihydro-2H-pyran-3-yl N-[(2S,3S)-4-[(2S,4S)-2-(tert-butylcarbamoyl)-4-chloropyrrolidin-1-yl]-3-hydroxy-4-oxo-1-phenylbutan-2-yl]carbamate] | 35 nM
12 | CC(C)(C)NC(=O)[C@@H]1C[C@H](Cl)CN1C(=O)[C@@H](O)[C@H](Cc1ccccc1)NC(=O)c1cccc(O)c1Br [(2S,4S)-1-[(2S,3S)-3-[(2-bromo-3-hydroxyphenyl)formamido]-2-hydroxy-4-phenylbutanoyl]-N-tert-butyl-4-chloropyrrolidine-2-carboxamide] | 1.5 nM
13 | CC(C)(C)NC(=O)[C@@H]1C[C@H](Cl)CN1C(=O)[C@@H](O)[C@H](Cc1ccccc1)NC(=O)c1ccccc1Br [(2S,4S)-1-[(2S,3S)-3-[(2-bromophenyl)formamido]-2-hydroxy-4-phenylbutanoyl]-N-tert-butyl-4-chloropyrrolidine-2-carboxamide] | 12 nM
14 | Cc1c(N)cccc1C(=O)N[C@@H](Cc1ccccc1)[C@H](O)C(=O)N1C[C@@H](Cl)C[C@H]1C(=O)NC(C)(C)C [(2S,4S)-1-[(2S,3S)-3-[(3-amino-2-methylphenyl)formamido]-2-hydroxy-4-phenylbutanoyl]-N-tert-butyl-4-chloropyrrolidine-2-carboxamide] | 5.4 nM
15 | CC(C)(C)NC(=O)[C@@H]1C[C@H](Cl)CN1C(=O)[C@@H](O)[C@H](Cc1ccccc1)NC(=O)c1cccc2ccccc12 [(2S,4S)-N-tert-butyl-4-chloro-1-[(2S,3S)-2-hydroxy-3-(naphthalen-1-ylformamido)-4-phenylbutanoyl]pyrrolidine-2-carboxamide] | 9 nM
16 | CC(C)(C)NC(=O)[C@@H]1C[C@H](Cl)CN1C(=O)[C@@H](O)[C@H](Cc1ccccc1)NC(=O)c1ccccc1O [(2S,4S)-N-tert-butyl-4-chloro-1-[(2S,3S)-2-hydroxy-3-[(2-hydroxyphenyl)formamido]-4-phenylbutanoyl]pyrrolidine-2-carboxamide] | > 1000 nM
17 | Cc1ccc(O)c(C)c1C(=O)N[C@@H](Cc1ccccc1)[C@H](O)C(=O)N1C[C@@H](Cl)C[C@H]1C(=O)NC(C)(C)C [(2S,4S)-N-tert-butyl-4-chloro-1-[(2S,3S)-2-hydroxy-3-[(3-hydroxy-2,6-dimethylphenyl)formamido]-4-phenylbutanoyl]pyrrolidine-2-carboxamide] | 2.5 nM

Row | Compound | IC50
18 | CCCc1c(O)cccc1C(=O)N[C@@H](Cc1ccccc1)[C@H](O)C(=O)N1C[C@@H](Cl)C[C@H]1C(=O)NC(C)(C)C [(2S,4S)-N-tert-butyl-4-chloro-1-[(2S,3S)-2-hydroxy-3-[(3-hydroxy-2-propylphenyl)formamido]-4-phenylbutanoyl]pyrrolidine-2-carboxamide] | 1.6 nM
19 | CC(C)(C)NC(=O)[C@@H]1C[C@H](Cl)CN1C(=O)[C@@H](O)[C@H](Cc1ccccc1)NC(=O)c1ccccc1 [(2S,4S)-N-tert-butyl-4-chloro-1-[(2S,3S)-2-hydroxy-4-phenyl-3-(phenylformamido)butanoyl]pyrrolidine-2-carboxamide] | 26 nM
20 | CCCc1ccccc1C(=O)N[C@@H](Cc1ccccc1)[C@H](O)C(=O)N1C[C@@H](Cl)C[C@H]1C(=O)NC(C)(C)C [(2S,4S)-N-tert-butyl-4-chloro-1-[(2S,3S)-2-hydroxy-4-phenyl-3-[(2-propylphenyl)formamido]butanoyl]pyrrolidine-2-carboxamide] | 29 nM
21 | CCc1c(O)cccc1C(=O)N[C@@H](Cc1ccccc1)[C@H](O)C(=O)N1C[C@@H](Cl)C[C@H]1C(=O)NC(C)(C)C [(2S,4S)-N-tert-butyl-4-chloro-1-[(2S,3S)-3-[(2-ethyl-3-hydroxyphenyl)formamido]-2-hydroxy-4-phenylbutanoyl]pyrrolidine-2-carboxamide] | 0.9 nM
22 | Cc1c(F)cccc1C(=O)N[C@@H](Cc1ccccc1)[C@H](O)C(=O)N1C[C@@H](Cl)C[C@H]1C(=O)NC(C)(C)C [(3-Fluoro-2-methyl)benzoyl-(2S,3S)-AHPBA-4(S)-Cl-Pro-NH-t-Bu] | 5.6 nM
23 | Cc1c(O)cccc1C(=O)N[C@@H](Cc1ccccc1)[C@H](O)C(=O)N1C[C@@H](Cl)C[C@H]1C(=O)NC(C)(C)C [(3-Hydroxy-2-methylbenzoyl)-(2(S)-hydroxy-3(S)-amino-phenylbutanoyl)-4(S)-Cl-Pro-NH-t-Bu] | 0.8 nM
24 | CC(C)(C)NC(=O)[C@@H]1C[C@H](Cl)CN1C(=O)[C@@H](O)[C@H](Cc1ccccc1)NC(=O)O[C@@H]1CO[C@H]2[C@@H]1OC[C@H]2O [(3R,3aR,6R,6aR)-6-hydroxy-hexahydrofuro[3,2-b]furan-3-yl N-[(2S,3S)-4-[(2S,4S)-2-(tert-butylcarbamoyl)-4-chloropyrrolidin-1-yl]-3-hydroxy-4-oxo-1-phenylbutan-2-yl]carbamate] | 25 nM
25 | CC(C)(C)NC(=O)[C@@H]1C[C@H](Cl)CN1C(=O)[C@@H](O)[C@H](Cc1ccccc1)NC(=O)O[C@H]1CCCOC1 [(3S)-oxan-3-yl N-[(2S,3S)-4-[(2S,4S)-2-(tert-butylcarbamoyl)-4-chloropyrrolidin-1-yl]-3-hydroxy-4-oxo-1-phenylbutan-2-yl]carbamate] | 14 nM
26 | CC(C)(C)NC(=O)[C@@H]1C[C@H](Cl)CN1C(=O)[C@@H](O)[C@H](Cc1ccccc1)NC(=O)O[C@H]1CCOC1 [(3S)-oxolan-3-yl N-[(2S,3S)-4-[(2S,4S)-2-(tert-butylcarbamoyl)-4-chloropyrrolidin-1-yl]-3-hydroxy-4-oxo-1-phenylbutan-2-yl]carbamate] | 5.1 nM
27 | COC1O[C@H]2[C@H](OC(=O)N[C@@H](Cc3ccccc3)[C@H](O)C(=O)N3C[C@@H](Cl)C[C@H]3C(=O)NC(C)(C)C)[C@H](OC)OC[C@H]2O1 (stereo partly drawn) [(3aR,6R,7S,7aR)-2,6-dimethoxy-hexahydro-[1,3]dioxolo[4,5-c]pyran-7-yl N-[(2S,3S)-4-[(2S,4S)-2-(tert-butylcarbamoyl)-4-chloropyrrolidin-1-yl]-3-hydroxy-4-oxo-1-phenylbutan-2-yl]carbamate] | > 1000 nM
28 | CC(C)(C)NC(=O)[C@@H]1C[C@H](Cl)CN1C(=O)[C@@H](O)[C@H](Cc1ccccc1)NC(=O)OC1CCS(=O)(=O)C1 (stereo partly drawn) [[3(R,S) - (1,1 - Dioxo - tetrahydrothiophenyl)oxy]carbonyl-(2S,3S)-AHPBA-4(S)-Cl-Pro-NH-t-Bu] | 11 nM
29 | CC(C)(C)NC(=O)[C@@H]1C[C@H](Cl)CN1C(=O)[C@@H](O)[C@H](Cc1ccccc1)NC(=O)OC1CCOC1 (stereo partly drawn) [[3(R,S)-(Tetrahydrofuranyl)oxy]carbonyl-(2S,3S)-AHPBA-4(S)-Cl-Pro-NH-t-Bu] | 4.9 nM
30 | CC(C)(C)NC(=O)[C@@H]1C[C@H](Cl)CN1C(=O)[C@@H](O)[C@H](Cc1ccccc1)NC(=O)O[C@H]1C=CCOC1 [[5(R) - (5,6 - Dihydro - 2H-pyranyl)oxy]carbonyl - (2S,3S)-AHPBA-4(S)-Cl-Pro-NH-t-Bu] | 4.5 nM
31 | CO[C@@H]1OCC=C[C@@H]1OC(=O)N[C@@H](Cc1ccccc1)[C@H](O)C(=O)N1C[C@@H](Cl)C[C@H]1C(=O)NC(C)(C)C [[5(S)-[6(R)-Methoxy-5,6-dihydro-2H-pyranyl]oxy]carbonyl-(2S,3S)-AHPBA-4(S)-Cl-Pro-NH-t-Bu] | 29 nM
32 | CC(C)(C)NC(=O)[C@@H]1C[C@H](Cl)CN1C(=O)[C@@H](O)[C@H](Cc1ccccc1)NC(=O)c1ccc2ccccc2c1 [beta-Naphthoyl-(2S,3S)-AHPBA-4(S)-Cl-Pro-NH-t-Bu] | 50 nM
33 | CC(C)(C)NC(=O)[C@@H]1C[C@H](Cl)CN1C(=O)[C@@H](O)[C@H](Cc1ccccc1)NC(=O)OC1CCCC1 [cyclopentyl N-[(2S,3S)-4-[(2S,4S)-2-(tert-butylcarbamoyl)-4-chloropyrrolidin-1-yl]-3-hydroxy-4-oxo-1-phenylbutan-2-yl]carbamate] | 19 nM
